From publication PMC6112376, “Comprehensive Analyses and Prioritization of Tox21 10K Chemicals Affecting Mitochondrial Function by in-Depth Mechanistic Studies” (Environmental Health Perspectives, 2018)
Where two headings read alike, the source gives them in different places.

Key:
HepG2 cells [1] = test: ROS-Glo hydrogen peroxide (ROS) assay; assay type: cell-based, human
[2] = tested on: isolated rat liver mitochondria; test: Oxygen consumption, Clark-type oxygen electrode; assay type: biochemical
[3] = target: T1, mitochondrial respiratory chain complex II (Rattus norvegicus, UniProt P21913+Q641Z9+Q6PCT8+Q920L2); test: Respiratory chain complex II activity; assay type: biochemical; conditions: tested up to 100μM
T1 construct: Submitochondrial particles were prepared by subjecting the intact rat mitochondria, isolated as described above, to three successive freeze–thaw cycles; from tissue; host or cells: rat liver mitochondria (submitochondrial particles)

HepG2 cells [4] = test: Intracellular ATP content (cell viability) assay; assay type: cell-based, human; conditions: Homo sapiens, HepG2, 40 h
[5] = tested on: HeLa cells expressing YFP-Parkin; test: Parkin translocation assay; assay type: cell-based, human
HepG2 cells [6] = test: cells; conditions: Homo sapiens
hNSC = test: MMP assay in human neural stem cells (hNSC); assay type: cell-based; conditions: Homo sapiens, Neural stem cell, 1 h, read-out: hNSC IC50 (MMP)
rat primary hepatocytes [7] = tested on: rat primary hepatocytes
[8] = tested on: mitochondrial respiratory chain complex IV; assay type: biochemical, rat
[9] = tested on: mitochondrial respiratory chain complex I; assay type: biochemical, rat
[10] = tested on: Nrf2/ARE (ARE-bla HepG2 cells); test: ARE β-lactamase reporter gene assay; assay type: cell-based, human; conditions: 16 h incubation, mean±SD of three experiments
[11] = tested on: p53 (p53-bla HCT-116 cells); test: p53 β-lactamase reporter gene assay; assay type: cell-based, human; conditions: Homo sapiens; 16 h incubation; mean±SD of three experiments
rat primary hepatocytes [12] = test: MMP assay in rat primary hepatocytes; conditions: Rattus norvegicus, Hepatocyte, 1 h
[13] = tested on: mitochondrial respiratory chain complex III; assay type: biochemical, rat
[14] = tested on: mitochondrial respiratory chain complex V; assay type: biochemical, rat
[15] = tested on: Caenorhabditis elegans (Bristol N2); test: C. elegans larval development and growth assay
[16] = tested on: Caenorhabditis elegans strain PE255; test: In vivo C. elegans ATP status assay
HepG2 cells [17] = conditions: cited from earlier work
[18] = read-out: ATP (HepG2, galactose) IC50
[19] = read-out: ATP (HepG2, glucose) IC50
[20] = HepG2, 1 h, read-out: HepG2 IC50 Galactose (MMP)
[21] = HepG2, 1 h, read-out: HepG2 IC50 Glucose (MMP)
[22] = read-out: Rat hepatocytes IC50 (MMP)

T1 sequence (Q920L2 35-656): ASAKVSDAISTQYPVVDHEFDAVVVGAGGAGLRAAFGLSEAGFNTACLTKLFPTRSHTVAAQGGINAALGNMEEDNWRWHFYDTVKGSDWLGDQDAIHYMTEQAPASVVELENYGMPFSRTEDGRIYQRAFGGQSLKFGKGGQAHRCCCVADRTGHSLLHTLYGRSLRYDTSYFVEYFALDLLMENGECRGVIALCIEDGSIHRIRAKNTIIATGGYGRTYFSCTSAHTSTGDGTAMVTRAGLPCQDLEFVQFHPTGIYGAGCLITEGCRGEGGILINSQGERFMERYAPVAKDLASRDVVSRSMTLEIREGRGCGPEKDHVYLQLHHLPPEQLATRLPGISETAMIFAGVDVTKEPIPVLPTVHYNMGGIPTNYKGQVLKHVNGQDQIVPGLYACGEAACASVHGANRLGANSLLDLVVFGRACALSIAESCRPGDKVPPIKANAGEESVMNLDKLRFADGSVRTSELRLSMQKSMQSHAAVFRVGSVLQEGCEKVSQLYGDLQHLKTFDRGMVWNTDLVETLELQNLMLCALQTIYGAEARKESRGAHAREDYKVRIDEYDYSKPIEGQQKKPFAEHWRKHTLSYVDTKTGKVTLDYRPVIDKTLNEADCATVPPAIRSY
T1 sequence (P21913 31-282): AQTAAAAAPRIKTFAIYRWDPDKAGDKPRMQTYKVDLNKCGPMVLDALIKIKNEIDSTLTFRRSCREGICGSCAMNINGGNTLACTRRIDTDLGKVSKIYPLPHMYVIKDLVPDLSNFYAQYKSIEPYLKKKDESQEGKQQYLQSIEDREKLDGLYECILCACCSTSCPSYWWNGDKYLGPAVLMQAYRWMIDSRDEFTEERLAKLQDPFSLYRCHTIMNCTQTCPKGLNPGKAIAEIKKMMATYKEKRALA
T1 sequence (Q641Z9 1-169): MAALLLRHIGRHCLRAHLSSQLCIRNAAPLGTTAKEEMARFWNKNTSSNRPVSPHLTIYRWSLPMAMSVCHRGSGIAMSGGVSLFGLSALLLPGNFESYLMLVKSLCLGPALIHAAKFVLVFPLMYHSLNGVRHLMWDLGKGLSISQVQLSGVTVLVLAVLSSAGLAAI
T1 sequence (Q6PCT8 57-159): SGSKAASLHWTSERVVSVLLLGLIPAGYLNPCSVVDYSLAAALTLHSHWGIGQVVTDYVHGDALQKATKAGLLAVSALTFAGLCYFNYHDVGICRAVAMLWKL

## CCCCCC[C@H]1C(=O)O[C@H](C)[C@H](NC(=O)c2cccc(NC=O)c2O)C(=O)O[C@@H](C)[C@@H]1OC(=O)CC(C)C [Antimycin A, reference compound]
HepG2 cells [1]; Homo sapiens, HepG2, 2 h, read-out: ROS (HepG2) EC50
  EC50: 6830 nM
[2]
  Potential Mechanism: Inhibitor
  effect on mitochondrial respiration (in words): significantly inhibited both glutamate/malate-driven respiration and succinate-driven respiration
[2]; 0.00128 µM
  I-ADP, % of control (O2 consumption rate): 101 (37.5) % of control
  I-sub, % of control (O2 consumption rate): 104 (11.2) % of control
  II-ADP, % of control (O2 consumption rate): 102 (64.0) % of control
  II-sub, % of control (O2 consumption rate): 105 (19.5) % of control
[2]; 0.0064 µM
  I-ADP, % of control (O2 consumption rate): 90 (33.5) % of control
  I-sub, % of control (O2 consumption rate): 93 (10.0) % of control
  II-ADP, % of control (O2 consumption rate): 83 (52.2) % of control
  II-sub, % of control (O2 consumption rate): 92 (17.1) % of control
[2]; 0.032 µM
  I-ADP, % of control (O2 consumption rate): 59 (22.1) % of control
  I-sub, % of control (O2 consumption rate): 86 (9.3) % of control
  II-ADP, % of control (O2 consumption rate): 39 (24.5) % of control
  II-sub, % of control (O2 consumption rate): 67 (12.4) % of control
[2]; 0.16 µM
  I-ADP, % of control (O2 consumption rate): 17 (6.4) % of control
  I-sub, % of control (O2 consumption rate): 53 (5.7) % of control
  II-ADP, % of control (O2 consumption rate): 10 (6.4) % of control
  II-sub, % of control (O2 consumption rate): 36 (6.7) % of control
[2]; 0.8 µM
  I-ADP, % of control (O2 consumption rate): 16 (6.1) % of control
  I-sub, % of control (O2 consumption rate): 63 (6.8) % of control
  II-ADP, % of control (O2 consumption rate): 10 (6.4) % of control
  II-sub, % of control (O2 consumption rate): 30 (5.6) % of control
[2]; 4 µM
  I-ADP, % of control (O2 consumption rate): 13 (4.8) % of control
  I-sub, % of control (O2 consumption rate): 51 (5.5) % of control
  II-ADP, % of control (O2 consumption rate): 12 (7.5) % of control
  II-sub, % of control (O2 consumption rate): 31 (5.7) % of control
[2]; 20 µM
  I-ADP, % of control (O2 consumption rate): 15 (5.7) % of control
  I-sub, % of control (O2 consumption rate): 54 (5.8) % of control
  II-ADP, % of control (O2 consumption rate): 9 (5.8) % of control
  II-sub, % of control (O2 consumption rate): 32 (6.0) % of control
[2]; 100 µM
  I-ADP, % of control (O2 consumption rate): 9 (4.8) % of control
  I-sub, % of control (O2 consumption rate): 26 (5.6) % of control
  II-ADP, % of control (O2 consumption rate): 7 (4.0) % of control
  II-sub, % of control (O2 consumption rate): 13 (4.6) % of control
[3]
  Complex II % inhibition (activity call): Inactive
HepG2 cells [4]; [18]
  IC50: 50 nM
HepG2 cells [4]; [19]
  IC50: 20 nM
[5]
  Parkin recruitment: Active
[5]; 3 h
  Parkin translocation into mitochondria (in words): significantly increased Parkin translocation into mitochondria
HepG2 cells [6]; [20]
  IC50: 250 nM
HepG2 cells [6]; [21]
  IC50: 2790 nM
hNSC
  IC50: 2910 nM
Rat primary hepatocytes [7]
  Rat hepatocytes (efficacy) (MMP): 2.65±1.08 ( −94.9±3.37 ) %
[8]
  Complex IV % inhibition (activity call): Inactive
[9]
  Complex I % inhibition (activity call): Inactive
[10]; Homo sapiens, HepG2, read-out: ARE (HepG2) EC50
  EC50: 470 ± 420 nM
[11]
  EC50: 310 ± 40 nM
Rat primary hepatocytes [12]; [22]
  IC50: 2650 nM
[13]
  inhibitory effect on Complex III at (concentration): 0.032 µM
[13]; at 0.032μM
  Complex III % inhibition: 71.1±2.91 at 0.032μM %
[14]
  Complex V % inhibition (activity call): Inactive

## O=C(Nc1ccc([N+](=O)[O-])cc1Cl)c1cc(Cl)ccc1O [Niclosamide, reference compound]
HepG2 cells [1]
  ROS (HepG2) EC50: Inactive
[2]
  Potential Mechanism: Uncoupler at low concentrations (0.064-0.16 µM), and Uncoupler + inhibitor at high concentrations (0.8-100 µM)
[2]; 0.00128 µM
  I-ADP, % of control (O2 consumption rate): 85 (30.5) % of control
  I-sub, % of control (O2 consumption rate): 109 (10.5) % of control
  II-ADP, % of control (O2 consumption rate): 92 (49.0) % of control
  II-sub, % of control (O2 consumption rate): 108 (17.7) % of control
[2]; 0.0064 µM
  I-ADP, % of control (O2 consumption rate): 88 (31.4) % of control
  I-sub, % of control (O2 consumption rate): 125 (12.0) % of control
  II-ADP, % of control (O2 consumption rate): 87 (46.4) % of control
  II-sub, % of control (O2 consumption rate): 109 (17.9) % of control
[2]; 0.032 µM
  I-ADP, % of control (O2 consumption rate): 103 (36.6) % of control
  I-sub, % of control (O2 consumption rate): 192 (18.4) % of control
  II-ADP, % of control (O2 consumption rate): 89 (47.7) % of control
  II-sub, % of control (O2 consumption rate): 132 (21.7) % of control
[2]; 0.16 µM
  I-ADP, % of control (O2 consumption rate): 126 (45.0) % of control
  I-sub, % of control (O2 consumption rate): 419 (40.2) % of control
  II-ADP, % of control (O2 consumption rate): 92 (49.0) % of control
  II-sub, % of control (O2 consumption rate): 230 (37.8) % of control
[2]; 0.8 µM
  I-ADP, % of control (O2 consumption rate): 85 (30.2) % of control
  I-sub, % of control (O2 consumption rate): 308 (29.6) % of control
  II-ADP, % of control (O2 consumption rate): 53 (28.1) % of control
  II-sub, % of control (O2 consumption rate): 204 (33.5) % of control
[2]; 4 µM
  I-ADP, % of control (O2 consumption rate): 70 (25.1) % of control
  I-sub, % of control (O2 consumption rate): 276 (26.5) % of control
  II-ADP, % of control (O2 consumption rate): 39 (21.1) % of control
  II-sub, % of control (O2 consumption rate): 147 (24.1) % of control
[2]; 20 µM
  I-ADP, % of control (O2 consumption rate): 79 (28.1) % of control
  I-sub, % of control (O2 consumption rate): 308 (29.6) % of control
  II-ADP, % of control (O2 consumption rate): 37 (19.6) % of control
  II-sub, % of control (O2 consumption rate): 145 (23.8) % of control
[2]; 100 µM
  I-ADP, % of control (O2 consumption rate): 93 (42.6) % of control
  I-sub, % of control (O2 consumption rate): 296 (45.9) % of control
  II-ADP, % of control (O2 consumption rate): 44 (31.3) % of control
  II-sub, % of control (O2 consumption rate): 119 (37.3) % of control
HepG2 cells [4]; [18]
  IC50: 2260 nM
HepG2 cells [4]; [19]
  IC50: 2010 nM
[5]
  Parkin recruitment: Active
[15]; 0.5 µM
  EXT: mean difference in nematode size relative to plate controls: 0.005018
[15]; 1 µM
  EXT: mean difference in nematode size relative to plate controls: -0.03083
[15]; 5 µM
  EXT: mean difference in nematode size relative to plate controls: -0.00657
[15]; 10 µM
  EXT: mean difference in nematode size relative to plate controls: 0.2753
[15]; 25 µM
  EXT: mean difference in nematode size relative to plate controls: 0.1226
[15]; 50 µM
  EXT: mean difference in nematode size relative to plate controls: 0.2162
HepG2 cells [6]; [20]
  IC50: 1470 nM
HepG2 cells [6]; [21]
  IC50: 870 nM
HepG2 cells [6]; HepG2, read-out: IC50 in HepG2 cells (MMP, tier-one retest)
  IC50: 100 nM
HepG2 cells [6]; HepG2, read-out: MMP assays efficacy (%) HepG2
  Emax: 87%
hNSC
  IC50: 420 nM
Rat primary hepatocytes [7]
  MMP assays efficacy (%) Rat Hepatocytes: -112±30%
  Rat hepatocytes (efficacy) (MMP): 1.36±0.16 ( −107±13.5 ) %
[16]; 0.5 µM
  LUM: mean difference in luminescence (ATP content) relative to plate controls: 0.1961
[16]; 1 µM
  LUM: mean difference in luminescence (ATP content) relative to plate controls: 0.1905
[16]; 5 µM
  LUM: mean difference in luminescence (ATP content) relative to plate controls: 0.2783
[16]; 10 µM
  LUM: mean difference in luminescence (ATP content) relative to plate controls: 0.1333
[16]; 25 µM
  LUM: mean difference in luminescence (ATP content) relative to plate controls: 0.2438
[16]; 50 µM
  LUM: mean difference in luminescence (ATP content) relative to plate controls: 0.3
[16]; 75 µM
  LUM: mean difference in luminescence (ATP content) relative to plate controls: 0.12
[16]; 100 µM
  LUM: mean difference in luminescence (ATP content) relative to plate controls: 0.1413
[10]
  ARE (HepG2) EC50: Inactive
[11]
  EC50: 580 ± 490 nM
Rat primary hepatocytes [12]; read-out: IC50 in rat primary hepatocytes (MMP, tier-one retest)
  IC50: 440 nM
Rat primary hepatocytes [12]; [22]
  IC50: 1360 nM
HepG2 cells [17]
  MMP assays efficacy (%) qHTS-HepG2: -98±4%
HepG2 cells [17]; read-out: MMP assays IC50 (µM), qHTS-HepG2
  IC50: 0.03 ± 0.01 µM
